# From article PMC4987650, “Structural Investigation of Park’s Nucleotide on Bacterial Translocase MraY: Discovery of Unexpected MraY Inhibitors” (Scientific Reports, 2016)
# Entries after “also recorded” stand apart in the source; their conditions may differ. Read-outs that look alike come from different tables or passages of the source. Numbered stars: 1 amine (or outer) side, 2 acyl side, 3 side chain; on linkers, the order of the positions; unused ones are H or OH. Square brackets hold non-standard residues; d marks the D form. Peptide text beside a SMILES is read from it. * marks the point of attachment. UDPMurNAc = CC(=O)N[C@H]1[C@@H](OP(=O)(O)OP(=O)(O)OC[C@H]2O[C@@H](n3ccc(=O)[nH]c3=O)[C@H](O)[C@@H]2O)O[C@H](CO)[C@@H](O)[C@@H]1O[C@H](C)C(=O)*; d(γGlu) = O=C(O)[C@@H](CCC(=O)[*:2])N[*:1]; NBD = O=[N+]([O-])c1ccc(*)c2nonc12; GABA = NCCCC(=O)O
# Assays:
# MraYBS [1] = target: T1, MraYBS (Bacillus subtilis, UniProt Q03521); experiment: HPLC-based MraY functional assay (substrate activity); type: biochemical; conditions: for conversion %: lipid phosphates 200 μM, NBD-Park's nucleotide (6) 10 μM, 1 h, from consumption of 6, n = 3, average ± SD; for conversion % / recognized as a MraYBS substrate: MraYBS 10 μg/mL; for conversion % / substrate under extreme reaction conditions / recognized as a MraYBS substrate: 37 °C; for substrate under extreme reaction conditions: Park's nucleotides 10 μM, MraYBS 40 μg/mL, C55P 1 mM, 24 h; for recognized as a MraYBS substrate: analogue 10 μM, C55P 200 μM
# T1 construct: MBP; made in house
# T1 sequence (Q03521 1-324): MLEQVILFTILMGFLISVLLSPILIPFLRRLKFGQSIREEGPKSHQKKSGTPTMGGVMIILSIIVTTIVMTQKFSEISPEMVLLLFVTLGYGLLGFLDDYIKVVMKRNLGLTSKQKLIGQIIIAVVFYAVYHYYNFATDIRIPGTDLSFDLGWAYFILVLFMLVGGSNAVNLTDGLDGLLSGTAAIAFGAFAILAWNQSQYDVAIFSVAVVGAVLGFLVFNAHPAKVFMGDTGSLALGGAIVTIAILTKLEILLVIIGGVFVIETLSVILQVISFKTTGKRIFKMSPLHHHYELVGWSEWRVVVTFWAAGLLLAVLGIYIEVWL
# Description: The purified MraY from Bacillus subtilis was prepared as described in our previous reports. […] […] The reaction mixtures were added by uridine (0.01 mg/mL) as the internal standard and heated to 100 °C to stop the transferring reaction. The samples were analyzed by RP-C18 HPLC with gradient elution of 0.25 M NH4HCO3(aq)/15% MeOH in water (100:0 to 0:100) at a flow rate of 1 mL/min over 45 min, and the peaks of substrates were monitored at UV 260 nm. For 6 and 11–17, the reaction mixture containing MraYBS (10 μg/mL), C55P (200 μM), 6-(7-Nitro-2,1,3-benzoxadiazol-4-ylamino)hexanoic acid (5 μM, internal standard) in 10 μL reaction buffer (30 mM Tris, 10 mM MgCl2, 10 mM NaCl, 0.1 mM Tween-20, 2.5% DMSO, pH 8.0) were pre-incubated at 37 °C for 15 min. […] The reaction mixtures were heated to 100 °C to stop the transferring reaction, and samples were analyzed by an anion-exchange column (SAX1, Supelco Co., 5 μm, 4.6 × 250 mm) with a linear gradient elution of NH4OAc (20 mM to 1 M in MeOH) at a flow rate of 1.0 mL/min over 30 min. The fluorescent substrates were monitored with λex 466 nm/λem 535 nm by fluorescence detector.
# MraYBS [2] = target: T1, MraYBS; experiment: Biolayer interferometry-based (BLI) binding assay; conditions: for binding affinity with MraYBS: concentrations up to 500 μM
# Description: MraYBS binding was measured in a biolayer interferometry-based binding assay on Octet Red96® instrument (ForteBio, Inc.). The biotinylation of MraYBS was performed with using EZ-Link® Sulfo-NHS-LC-LC-Biotin Kit (Thermo Fisher Scientific, Inc.). In general, MraYBS (1.7 mg/mL) in 50 μL reaction buffer (0.01 M HEPES pH 7.4, 0.15 M NaCl, 0.005% v/v Surfactant P20), was added by the sulfo-NHS-LC-LC-biotin reagent (1 mM, 1 μL). After incubating for 30 minutes at room temperature, the biotinylated-MraYBS was purified by a Zeba^TM Spin Desalting Columns, 7K MWCO (Thermo Fisher Scientific, Inc.), and the buffer was changed to the binding buffer (30 mM Tris, 10 mM MgCl2, 10 mM NaCl, 0.1 mM Tween-20, pH 8.0) during the purification. Comparing to the non-biotinylated-MraYBS, the biotinylated-MraYBS remains 62% activity measured by the HPLC-based MraY functional assay in 1 h reaction. The biotinylated MraYBS was then immobilized to Super Streptavidin (SSA) Octet tips (ForteBio, Inc.) for reaching a fixed signal of 3 nm. Before the assay starting, the MraYBS-labeled SSA sensors were pre-soaked in binding buffer for 30 min. The association of Park’s analogues with MraYBS were measured by incubating MraYBS-labeled SSA sensors in binding buffer containing various concentrations of samples in Octet Red system. The dissociation was monitored by moving the ligand biosenors from the analyte solution to binding buffer. The dissociation constants (KD) were obtained by nonlinear regression analysis using the specific binding model with the GraphPad Prism program (GraphPad Software, San Diego, CA).
# MraYBS [3] = target: T1, MraYBS; experiment: MraY fluorescence enhancement assay (kinetics, inhibition); type: biochemical; conditions: for Inhibition Mode: Lineweaver-Burk
# Description: Determine kinetic parameters by MraY fluorescence enhancement assay. The fluorescence enhancement assay was performed in 384-well plate as described by Bugg et al. with slight modifications.5 The reaction mixture containing MraYBS (10 μg/mL), C55P (200 μM) in 30 μL reaction buffer (30 mM Tris, 10 mM MgCl2, 10 mM NaCl, 0.1 mM Tween-20, 2.5% DMSO, pH 8.0) were pre-incubated at 37 °C for 15 min. The reactions were initiated by the addition of various concentrations of NBD-Park’s nucleotide 6 (0 to 160 μM). For inhibition study, a various concentrations of inhibitors were added before the addition of substrate 6. The continuous fluorescence increase over 60 min was monitored with λex 466 nm/λem 535 nm by fluorescence microplate reader (SpectraMax M5, Molecular Devices, LLC) at 37 °C. Linear regressions of increased fluorescent units (FLU) versus time (min) were used to calculate the initial velocities for each reaction. The kinetic parameters values (Ki, KM, and Vmax) were obtained by nonlinear regression analysis using the […] equation with the GraphPad Prism program (GraphPad Software, San
molecule,measurement,setting,value
"CC(C)=CCC/C(C)=C/CC/C(C)=C/CC/C(C)=C/CC/C(C)=C/CC/C(C)=C/CO [Hexaprenol, reference compound]",conversion %,MraYBS [1],27 ± 6%
CC(=O)N[C@H]1[C@@H](OP(=O)(O)OP(=O)(O)OC[C@H]2O[C@@H](n3ccc(=O)[nH]c3=O)[C@H](O)[C@@H]2O)O[C@H](CO)[C@H](O)[C@@H]1O[C@H](C)C(=O)N[C@@H](C)C(=O)N[C@H](CCC(=O)N[C@@H](CCCCNc1ccc([N+](=O)[O-])c2nonc12)C(=O)N[C@H](C)C(=O)N[C@H](C)C(=O)O)C(=O)O [Compound 11],substrate under extreme reaction conditions,MraYBS [1],did not function as substrates; also recorded: not be a substrate
"CC(C)=CCC/C(C)=C/CC/C(C)=C/CC/C(C)=C/CC/C(C)=C/CC/C(C)=C/CC/C(C)=C/CC/C(C)=C/CC/C(C)=C/CO [Solanesol, reference compound]",conversion %,MraYBS [1],12 ± 2%
CC(=O)N[C@H]1[C@@H](OP(=O)(O)OP(=O)(O)OC[C@H]2O[C@@H](n3ccc(=O)[nH]c3=O)[C@H](O)[C@@H]2O)O[C@H](CO)[C@@H](O)[C@@H]1O[C@H](C)C(=O)N[C@@H](C)C(=O)N[C@H](CCC(=O)N[C@@H](CCCCN)C(=O)O)C(=O)O [Compound 7],activity reduced compared with 5,MraYBS [1]; after 1 h reaction,17%
Tunicamycins [reference compound],Kd,"MraYBS [2]; BLI, without C55P, read-out: KD",93 ± 16 µM
same,Ki,"MraYBS [3]; 6 as substrate, C55P 200 μM, read-out: Ki",9 ± 1 µM
same,Inhibition Mode,MraYBS [3]; 6 as substrate,Competitive
"CC(=O)N[C@H]1[C@@H](OP(=O)(O)OP(=O)(O)OC[C@H]2O[C@@H](n3ccc(=O)[nH]c3=O)[C@H](O)[C@@H]2O)O[C@H](CO)[C@@H](O)[C@@H]1O [Compound 10, UDP-GlcNAc, reference compound]",recognized as a MraYBS substrate,MraYBS [1],not substrates
"CC(C)=CCC/C(C)=C/CC/C(C)=C/CC/C(C)=C/CC/C(C)=C/CC/C(C)=C/CC/C(C)=C/CC/C(C)=C/CC/C(C)=C/CC/C(C)=C/CC/C(C)=C/CO [Undecaprenol, reference compound]",conversion %,MraYBS [1],96 ± 1%
CC(=O)N[C@H]1[C@@H](OP(=O)(O)OP(=O)(O)OC[C@H]2O[C@@H](n3ccc(=O)[nH]c3=O)[C@H](O)[C@@H]2O)O[C@H](CO)[C@@H](O)[C@@H]1O[C@H](C)C(=O)N[C@@H](C)C(=O)NCCCC(=O)N[C@@H](CCCCNc1ccc([N+](=O)[O-])c2nonc12)C(=O)N[C@H](C)C(=O)N[C@H](C)C(=O)O [Compound 16] (UDPMurNAc-A[GABA]K(NBD)[dA][dA]-OH),relative activity compared to 6,MraYBS [1]; after 1 h reaction,< 10%
same,binding affinity with MraYBS,MraYBS [2],no proper binding affinity
CC(=O)N[C@H]1[C@@H](OP(=O)(O)OP(=O)(O)OC[C@H]2O[C@@H](n3cc(N)c(=O)[nH]c3=O)[C@H](O)[C@@H]2O)O[C@H](CO)[C@@H](O)[C@@H]1O[C@H](C)C(=O)N[C@@H](C)C(=O)O [Compound 18],inhibitory activity,MraYBS [3]; at 1 mM,no inhibition activity
"CC(C)=CCCC(C)=CCCC(C)=CCCC(C)=CCO [Tetraprenol, reference compound]",conversion %,MraYBS [1],16 ± 5%
CC(=O)N[C@H]1[C@@H](OP(=O)(O)OP(=O)(O)OC[C@H]2O[C@@H](n3ccc(=O)[nH]c3=O)[C@H](O)[C@@H]2O)O[C@H](CO)[C@@H](O)[C@@H]1O[C@H](C)C(=O)N[C@@H](C)C(=O)N[C@H](CCC(=O)O)C(=O)O [Compound 8],substrate activity remained,"MraYBS [1]; after 1 h reaction, compared with 5",40%
CC(=O)N[C@H]1[C@@H](OP(=O)(O)OP(=O)(O)OC[C@H]2O[C@@H](n3ccc(=O)[nH]c3=O)[C@H](O)[C@@H]2O)O[C@H](CO)[C@@H](O)[C@@H]1O[C@H](C)C(=O)NCC(=O)N[C@H](CCC(=O)N[C@@H](CCCCNc1ccc([N+](=O)[O-])c2nonc12)C(=O)N[C@H](C)C(=O)N[C@H](C)C(=O)O)C(=O)O [Compound 15] (UDPMurNAc-G[d(γGlu)]K(NBD)[dA][dA]-OH),relative activity compared to 6,MraYBS [1]; after 1 h reaction,about 80%
CC(=O)N[C@H]1[C@@H](OP(=O)(O)OP(=O)(O)OC[C@H]2O[C@@H](n3cc(N)c(=O)[nH]c3=O)[C@H](O)[C@@H]2O)O[C@H](CO)[C@@H](O)[C@@H]1O[C@H](C)C(=O)N[C@@H](C)C(=O)N[C@H](CCC(=O)N[C@@H](CCCCNc1ccc([N+](=O)[O-])c2nonc12)C(=O)N[C@H](C)C(=O)N[C@H](C)C(=O)O)C(=O)O [Compound 17],substrate under extreme reaction conditions,MraYBS [1],did not function as substrates; also recorded: not be a substrate
CC(=O)Nc1cn([C@@H]2O[C@H](COP(=O)(O)OP(=O)(O)O[C@H]3O[C@H](CO)[C@@H](O)[C@H](O[C@H](C)C(=O)N[C@@H](C)C(=O)O)[C@H]3NC(C)=O)[C@@H](O)[C@H]2O)c(=O)[nH]c1=O [Compound 19],Kd,MraYBS [2],281 ± 97 µM
same,Ki,MraYBS [3],764 ± 127 µM
same,Inhibition Mode,MraYBS [3]; 6 as substrate,Competitive
"CC(=O)N[C@H]1[C@@H](OP(=O)(O)OP(=O)(O)OC[C@H]2O[C@@H](n3ccc(=O)[nH]c3=O)[C@H](O)[C@@H]2O)O[C@H](CO)[C@@H](O)[C@@H]1O[C@H](C)C(=O)N[C@@H](C)C(=O)N[C@H](CCC(=O)N[C@@H](CCCCN)C(=O)N[C@H](C)C(=O)N[C@H](C)C(=O)O)C(=O)O [Compound 5, Park’s nucleotide]",substrate consumption,"MraYBS [1]; C55P (200 μM) as polyprenyl phosphate substrate, substrate 10 μM, within 1 h (60 min)",completely consumed
same,Kd,MraYBS [2],120 µM
CC(=O)N[C@H]1[C@@H](OP(=O)(O)OP(=O)(O)OC[C@H]2O[C@@H](n3cc(NC(=O)Cc4ccc(C)cc4)c(=O)[nH]c3=O)[C@H](O)[C@@H]2O)O[C@H](CO)[C@H](O)[C@@H]1O[C@H](C)C(=O)N[C@@H](C)C(=O)O [Compound 21],Kd,"MraYBS [2]; BLI, without C55P",> 250 µM
same,binding interactions with MraYBS,MraYBS [2]; concentration up to 250 μM,no sufficient binding interactions
same,inhibition at 1000 µM,MraYBS [3],30%
CC(=O)N[C@H]1[C@@H](OP(=O)(O)OP(=O)(O)OC[C@H]2O[C@@H](n3ccc(=O)[nH]c3=O)[C@H](O)[C@@H]2O)O[C@H](CO)[C@@H](O)[C@@H]1O[C@H](C)C(=O)N[C@@H](C)C(=O)O [Compound 9],recognized as a MraYBS substrate,MraYBS [1],not substrates
same,binding affinity with MraYBS,MraYBS [2],no proper binding affinity
"CC(C)=CCC/C(C)=C/CC/C(C)=C/CC/C(C)=C/CC/C(C)=C/CC/C(C)=C/CC/C(C)=C/CO [Heptaprenol, reference compound]",conversion %,MraYBS [1],55 ± 3%
